Legend:
[1] = tested on: UO-31; assay: SRB growth assay, 2 days exposure, renal cancer; format: cell-based
Procedure: (§1) Arsenic trioxide (1 mg/ml, 10 mg/ampoule, manufactured by Taylor Pharmaceuticals, Decatur, Ill.) was tested at five concentrations each at 10-fold dilutions, i.e., 10^−5, 10^−6, 10^−7, 10^−8 and 10^−9 μg/ml.
(§2) The in vitro tests were performed by incubating the test cells in the presence of the indicated concentration of arsenic trioxide under standard culture conditions for a designated period of time, which is followed by a sulforhodamine B (SRB) protein assay to estimate cell viability or growth. The cell lines are organized into subpanels according to the origin of the cell lines, e.g., leukemia, breast cancer, etc. A description of the cell lines and method of testing is described in Monk et al. (1997, Anticancer Drug Des. 12:533-41) and Weinstein et al., (1997, Science 275:343-9), which are incorporated herein in their entirety.
(§3) The measurement of an effect is expressed in Percentage Growth (PG). The measured effect of the compound on a cell line is calculated according to one or the other of the following two expressions: If (Mean ODtest−Mean ODzero)≧0. then PG=100×(Mean ODtest−Mean ODzero)/(Mean ODctrl−Mean ODzero) If (Mean ODtest−Mean ODzero)<0. then PG=100×(Mean ODtest−Mean ODzero)/(Mean ODzero where: • Mean ODzero=the average of optical density measurements of SRB-derived color just before exposure of cells to the test compounds; • Mean ODtest=the average of optical density measurements of SRB-derived color after exposure of cells to the test compound for a designated period of time; and • Mean ODctrl=the average of optical density measurements of SRB-derived color after with no exposure of cells to the test compound for a designated period of time
(§4) The first two columns describe the subpanel (e.g., leukemia) and cell line (e.g., CCRF-CEM) involved. The next two columns list the Mean ODzero and Mean ODctrl; the next five columns list the Mean ODtest for each of five different concentrations. Each concentration is expressed as the log10 (molar or μg/ml). The next five columns list the calculated PGs for each concentration. The response parameters GI50, TGI and LC50 are interpolated values representing the concentrations at which the PG is +50, 0, and −50, respectively. Sometimes these response parameters cannot be obtained by interpolation. If, for instance, all of the PGs in a given row exceed +50, then none of the three parameters can be obtained by interpolation. In such a case, the value given for each response parameter is the highest concentration tested and is preceded by a “>” sign. This practice is extended similarly to the other possible situations where a response parameter cannot be obtained by interpolation.
(§5) In the first set, the cells from 56 different cancer cell lines were exposed to five concentrations of arsenic trioxide continuously for two days prior to performing the SRB assay. In the second set, the cells from 50 different cell lines (a subset of the first 56 cell lines, plus the renal cancer cell line 786-0) were exposed continuously for six days prior to the SRB assay.

[2] = tested on: refractory APL; conditions: 14 of 15 patients with refractory APL; intravenous 10 mg/day for 4-9 weeks; cited from earlier work
[3] = tested on: NB4 cells, an APL cell line; conditions: in vitro; cited from earlier work
[4] = tested on: BR-549; assay: SRB growth assay, 6 days exposure, breast cancer; format: cell-based; conditions: BT-549, 6 days
Procedure: as §1, §2, §3, §4, §5

[5] = tested on: HS 578T; assay: SRB growth assay, 6 days exposure, breast cancer; format: cell-based
Procedure: as §1, §2, §3, §4, §5

[6] = tested on: U251; assay: SRB growth assay, 6 days exposure, CNS cancer; format: cell-based; conditions: U251, 6 days
Procedure: as §1, §2, §3, §4, §5

[7] = tested on: SF-539; assay: SRB growth assay, 6 days exposure, CNS cancer; format: cell-based; conditions: SF-539, 6 days
Procedure: as §1, §2, §3, §4, §5

[8] = tested on: SF-295; assay: SRB growth assay, 6 days exposure, CNS cancer; format: cell-based; conditions: SF-295, 6 days
Procedure: as §1, §2, §3, §4, §5

[9] = tested on: SF-268; assay: SRB growth assay, 6 days exposure, CNS cancer; format: cell-based; conditions: SF-268, 6 days
Procedure: as §1, §2, §3, §4, §5

[10] = tested on: SNB-75; assay: SRB growth assay, 6 days exposure, CNS cancer; format: cell-based; conditions: SNB-75, 6 days
Procedure: as §1, §2, §3, §4, §5

**Q.** What does the source list for arsenic trioxide?
**A.** TGI [1]: >0.0126 ng/mL; Percent Growth ([1]; log10 conc −4.9): 42%; Percent Growth ([1]; log10 conc −5.9): 103%; Percent Growth ([1]; log10 conc −6.9): 110%; Percent Growth ([1]; log10 conc −7.9): 108%; Percent Growth ([1]; log10 conc −8.9): 105%; clinical efficacy [2]: complete morphologic remission without associated bone marrow suppression; apoptosis (programmed cell death) [3]: induced apoptosis; GI50 [4]: 2.22 µM; TGI [4]: 4.24E−06; Mean Optical Densities ([4]; Log 10 Concentration −4.9): 0.018; Percent Growth ([4]; Log 10 Concentration −4.9): −84%; Mean Optical Densities ([4]; Log 10 Concentration −5.9): 1.697; Percent Growth ([4]; Log 10 Concentration −5.9): 94%; Mean Optical Densities ([4]; Log 10 Concentration −6.9): 1.963; Percent Growth ([4]; Log 10 Concentration −6.9): 110%; Mean Optical Densities ([4]; Log 10 Concentration −7.9): 1.940; Percent Growth ([4]; Log 10 Concentration −7.9): 108%; Mean Optical Densities ([4]; Log 10 Concentration −8.9): 1.876; Percent Growth ([4]; Log 10 Concentration −8.9): 105%; CC50 ([4]; read-out: LC50 (the source's name)): 8.08 µM; TGI [5]: 4.12E−06; Mean Optical Densities ([5]; Log 10 Concentration −4.9): 0.010; Percent Growth ([5]; Log 10 Concentration −4.9): −91%; Mean Optical Densities ([5]; Log 10 Concentration −5.9): 0.706; Percent Growth ([5]; Log 10 Concentration −5.9): 96%; Mean Optical Densities ([5]; Log 10 Concentration −6.9): 0.890; Percent Growth ([5]; Log 10 Concentration −6.9): 126%; Mean Optical Densities ([5]; Log 10 Concentration −7.9): 0.587; Percent Growth ([5]; Log 10 Concentration −7.9): 77%; Mean Optical Densities ([5]; Log 10 Concentration −8.9): 0.777; Percent Growth ([5]; Log 10 Concentration −8.9): 108%; TGI [6]: 8.51E−07; Mean Optical Densities ([6]; Log 10 Concentration −4.9): −0.012; Percent Growth ([6]; Log 10 Concentration −4.9): −100%; Mean Optical Densities ([6]; Log 10 Concentration −5.9): 0.088; Percent Growth ([6]; Log 10 Concentration −5.9): −17%; Mean Optical Densities ([6]; Log 10 Concentration −6.9): 1.908; Percent Growth ([6]; Log 10 Concentration −6.9): 81%; Mean Optical Densities ([6]; Log 10 Concentration −7.9): 2.018; Percent Growth ([6]; Log 10 Concentration −7.9): 86%; Mean Optical Densities ([6]; Log 10 Concentration −8.9): 2.129; Percent Growth ([6]; Log 10 Concentration −8.9): 91%; TGI [7]: 3.29E−06; Mean Optical Densities ([7]; Log 10 Concentration −4.9): 0.017; Percent Growth ([7]; Log 10 Concentration −4.9): −59%; Mean Optical Densities ([7]; Log 10 Concentration −5.9): 0.691; Percent Growth ([7]; Log 10 Concentration −5.9): 42%; Mean Optical Densities ([7]; Log 10 Concentration −6.9): 1.545; Percent Growth ([7]; Log 10 Concentration −6.9): 97%; Mean Optical Densities ([7]; Log 10 Concentration −7.9): 1.403; Percent Growth ([7]; Log 10 Concentration −7.9): 87%; Mean Optical Densities ([7]; Log 10 Concentration −8.9): 1.727; Percent Growth ([7]; Log 10 Concentration −8.9): 108%; TGI [8]: 3.25E−06; Mean Optical Densities ([8]; Log 10 Concentration −4.9): 0.010; Percent Growth ([8]; Log 10 Concentration −4.9): −69%; Mean Optical Densities ([8]; Log 10 Concentration −5.9): 0.659; Percent Growth ([8]; Log 10 Concentration −5.9): 49%; Mean Optical Densities ([8]; Log 10 Concentration −6.9): 1.244; Percent Growth ([8]; Log 10 Concentration −6.9): 94%; Mean Optical Densities ([8]; Log 10 Concentration −7.9): 1.279; Percent Growth ([8]; Log 10 Concentration −7.9): 97%; Mean Optical Densities ([8]; Log 10 Concentration −8.9): 1.284; Percent Growth ([8]; Log 10 Concentration −8.9): 97%; TGI [9]: 2.57E−06; Mean Optical Densities ([9]; Log 10 Concentration −4.9): −0.004; Percent Growth ([9]; Log 10 Concentration −4.9): −100%; Mean Optical Densities ([9]; Log 10 Concentration −5.9): 0.387; Percent Growth ([9]; Log 10 Concentration −5.9): 45%; Mean Optical Densities ([9]; Log 10 Concentration −6.9): 0.356; Percent Growth ([9]; Log 10 Concentration −6.9): 41%; Mean Optical Densities ([9]; Log 10 Concentration −7.9): 0.381; Percent Growth ([9]; Log 10 Concentration −7.9): 44%; Mean Optical Densities ([9]; Log 10 Concentration −8.9): 0.990; Percent Growth ([9]; Log 10 Concentration −8.9): 126%; TGI [10]: 3.80E−06; Mean Optical Densities ([10]; Log 10 Concentration −4.9): 0.028; Percent Growth ([10]; Log 10 Concentration −4.9): −79%; Mean Optical Densities ([10]; Log 10 Concentration −5.9): 0.815; Percent Growth ([10]; Log 10 Concentration −5.9): 73%; Mean Optical Densities ([10]; Log 10 Concentration −6.9): 1.024; Percent Growth ([10]; Log 10 Concentration −6.9): 96%; Mean Optical Densities ([10]; Log 10 Concentration −7.9): 1.033; Percent Growth ([10]; Log 10 Concentration −7.9): 97%; Mean Optical Densities ([10]; Log 10 Concentration −8.9): 1.143; Percent Growth ([10]; Log 10 Concentration −8.9): 108%

Source: patent US6875451B2, “Compositions and methods for the treatment of primary and metastatic neoplastic diseases using arsenic compounds” (PolaRx Biopharmaceuticals Inc., priority 1997, dated 2005)
